Several values for one entry are separate records, joined by “and”; a condition that tells them apart may be missing. Equal entries are not always repeated. Where two headings read alike, the source gives them in different places.
Legend:
Aurora A = molecular target: T1, Aurora A (Homo sapiens, UniProt O14965); test: Aurora A enzyme assay (Caliper LC3000 mobility shift); type: biochemical
T1 construct: N-terminal GST fusion with full length Aurora A (1-403 amino acids); purchased Carna Biosciences 05-101
T1 sequence (O14965 1-403): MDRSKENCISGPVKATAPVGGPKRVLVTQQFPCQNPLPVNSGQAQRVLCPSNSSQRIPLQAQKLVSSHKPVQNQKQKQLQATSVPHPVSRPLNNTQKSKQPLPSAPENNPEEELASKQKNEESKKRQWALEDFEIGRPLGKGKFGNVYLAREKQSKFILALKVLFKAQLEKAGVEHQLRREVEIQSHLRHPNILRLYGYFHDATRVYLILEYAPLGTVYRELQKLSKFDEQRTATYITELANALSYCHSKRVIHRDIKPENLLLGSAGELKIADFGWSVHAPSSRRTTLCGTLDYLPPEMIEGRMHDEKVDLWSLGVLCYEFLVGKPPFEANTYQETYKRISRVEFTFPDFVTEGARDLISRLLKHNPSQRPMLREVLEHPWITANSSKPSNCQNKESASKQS
Protocol: (§1) The Aurora and other kinase assays described here were performed on two Caliper Life Sciences systems, the LC3000 and the Desktop Profiler. These provide data on enzyme activity via measurement of the relative amounts of phosphorylated or unphosphorylated fluorescently labelled substrate peptide at the end of an enzymatic reaction. These different states of peptide are resolved by applying a potential difference across the sample. The presence of a charged phosphate group on the product (as opposed to the substrate) causes a different peptide mobility between the two peptides. This is visualized by excitation of a fluorescent label on the substrate and product peptides and represented as peaks within the analysis software.
For example, in order to measure inhibitor activity of Aurora A inhibitors in the Caliper Life Sciences LC3000, a TTP Mosquito liquid handling instrument was used to place […] of an appropriate concentration of inhibitor in 100% DMSO (for a dose response curve calculation) into each well of a 384-well plate. To this reaction components were added to a final volume of 25 μl: • 0.067 ng/μl GST-Aurora A (Carna Biosciences 05-101. N-terminal GST fusion with full length Aurora A (1-403 amino acids), accession number NP_940835.1). • 15 μM ATP (Fluka, 02055) • 1 mM DTT (Sigma, D0632) • 1 mM MgC12 (Sigma, M1028) • 1 μM substrate peptide (sequence FITC-LRRASLG-(CONH2), synthesized by Tufts Peptide Synthesis service. • 100 mM HEPES pH 7.5 (Calbiochem, 391338) • 0.015% Brij-35 (Sigma, B4184)
The reaction was incubated for 90 min at 25° C., and then stopped by the addition of 70 μl of Stop buffer (100 mM HEPES pH 7.5, 0.015% Brij-35, 10 mM EDTA (Sigma, E7889)).
The plate was read on a Caliper LC 3000 in an Off-Chip mobility shift assay format, using the following parameters for a 12-sipper chip: screening pressure −1.8 psi, upstream voltage −2700, downstream voltage −1000. These conditions cause unphosphorylated substrate and phosphorylated product peptide to resolve as separate peaks allowing direct measurement of percentage of conversion of substrate to product. The percent conversion was plotted against concentration of inhibitor to produce a sigmoidal dose response curve, from which an IC50 was calculated using XLFit for Microsoft Excel.

Aurora B = Aurora B (Homo sapiens, UniProt Q96GD4); test: Aurora B enzyme assay (Caliper); type: biochemical
Sequence of Aurora B (Q96GD4 whole entry): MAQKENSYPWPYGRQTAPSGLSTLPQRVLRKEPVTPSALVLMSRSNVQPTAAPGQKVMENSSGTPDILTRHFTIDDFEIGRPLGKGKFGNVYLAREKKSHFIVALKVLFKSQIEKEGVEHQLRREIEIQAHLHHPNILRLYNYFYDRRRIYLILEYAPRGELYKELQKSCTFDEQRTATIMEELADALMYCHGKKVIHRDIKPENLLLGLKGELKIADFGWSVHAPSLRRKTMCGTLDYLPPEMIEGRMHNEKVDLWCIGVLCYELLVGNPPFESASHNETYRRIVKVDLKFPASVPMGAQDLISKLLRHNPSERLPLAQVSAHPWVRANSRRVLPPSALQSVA
Protocol: as §1

[1] = molecular target: kinases (not incl. Aurora); test: Kinase inhibition profile (not incl. Aurora); type: biochemical; conditions: at 1 μM; hit means >79% inhibition
Protocol: as §1
The Desktop Profiler utilizes the same principal as the LC 3000 for calculating percentage conversion of a substrate to product. Caliper Life Sciences provided proprietary flash frozen pre-made 384 well plates containing selected kinases. Each column in the 384 well plate contained a particular selected kinase. A second plate, the ‘substrate plate’ contained a mix of fluorescently labeled peptide substrate and ATP. These were arranged in columns so that transfer for substrate plate to enzyme plate provided the correct enzyme with the correct substrate/ATP concentration.
Compounds were added to a thawed enzyme plate in the desired format, in single concentrations. Reactions were initiated by transfer of the ubstrate/ATP mix from the substrate plate. The enzyme plate was incubated for 90 mins at 25 °C. The reaction was stopped by addition of […] of Stop Buffer (100 mM HEPES pH 7.5, 0.015% Brij-35, 10 mM EDTA (Sigma, E7889)).
Plates were read in a manner identical to that of the LC3000, and the ratio between substrate and product peaks provided the activity of the enzyme in that well. This was best represented by a plate heat map which colors each well by percent inhibition as compared to positive and negative controls (no inhibitors and no ATP respectively).

MiaPaca2 = test: Cellular activity MiaPaca2; type: cell-based; conditions: Homo sapiens, MIA PaCa-2
Protocol: (§2) The susceptibility of a particular cell to treatment with the compounds according to the invention was determined by in vitro tests. Typically, a culture of the cell was combined with a compound according to the invention at various concentrations for a period of time that was sufficient to allow the active agents to induce cell death or to inhibit migration, usually between about one hour and one week. In vitro testing was carried out using cultivated cells from a biopsy sample. The viable cells remaining after the treatment then were counted.

A549 = test: Cellular activity A549; type: cell-based; conditions: Homo sapiens
Protocol: as §2

Compound	IC50 (Aurora A) [µM]	IC50 (Aurora B) [µM]	IC50 (MiaPaca2) [µM]	IC50 (A549) [µM]	also measured
NC(=O)[C@H]1[C@@H]2C[C@H]3CNC(=O)Cn4cnc(c4)Nc4ncc(F)c(n4)N[C@@H]1[C@@H]3C2	1 to 6.25	1 to 6.25	–	–	ring closure, yield of all isomers (from NC(=O)[C@H]1[C@@H]2C[C@@H](CNC(=O)Cn3cnc([N+](=O)[O-])c3)[C@@H](C2)[C@H]1Nc1nc(Cl)ncc1F, snar bond, 2 steps): 46.6%
NC(=O)[C@H]1[C@@H]2CC3CNCCc4cccc(c4)Nc4ncc(F)c(n4)N[C@@H]1[C@@H]3C2 (stereo partly drawn)	0.101 to 1	0.001 to 0.1	0.101 to 1	0.101 to 1	ring closure, yield of all isomers (from NC(=O)[C@H]1[C@@H]2CC(CNCCc3cccc(N)c3)[C@@H](C2)[C@H]1Nc1nc(Cl)ncc1F, snar bond): 18.5%; Kinase Inhibition Profile (not incl. Aurora) # kinases hit/# kinases tested [1]: 1/53 at 1 μM
NC(=O)[C@H]1[C@@H]2C[C@H]3CNCC(=O)Nc4cccc(c4)Nc4ncc(F)c(n4)N[C@@H]1[C@@H]3C2	0.101 to 1	0.101 to 1	–	–	ring closure, yield of all isomers (from NC(=O)[C@H]1[C@@H]2C[C@@H](CNCC(=O)Nc3cccc(N)c3)[C@@H](C2)[C@H]1Nc1nc(Cl)ncc1F, snar bond): 44%
NC(=O)[C@H]1[C@H]2C[C@H]3[C@H]1Nc1nc(ncc1F)Nc1cccc(c1)COC(=O)N[C@@H]3C2	0.001 to 0.1	0.001 to 0.1	1 to 6.25	1 to 6.25	ring closure, yield of all isomers (from NC(=O)[C@H]1[C@H]2C[C@@H]([C@H]1Nc1nc(Cl)ncc1F)[C@H](NC(=O)OCc1cccc(N)c1)C2, snar bond): 3.3%
NC(=O)[C@H]1[C@@H]2C[C@H]3CNS(=O)(=O)Cc4cccc(c4)Nc4ncc(F)c(n4)N[C@@H]1[C@@H]3C2	0.001 to 0.1	0.101 to 1	1 to 6.25	1 to 6.25	ring closure, yield of all isomers (from NC(=O)[C@H]1[C@@H]2C[C@@H](CNS(=O)(=O)Cc3cccc(N)c3)[C@@H](C2)[C@H]1Nc1nc(Cl)ncc1F, snar bond): 6.3%
Fc1cnc2nc1NC1CCC(CC1)OCC=CCOc1cccc(c1)N2	–	–	–	–	ring closure, yield of all isomers (from C=CCOc1cccc(Nc2ncc(F)c(NC3CCC(OCC=C)CC3)n2)c1, rcm bond, Grubbs 2nd generation, then Hoveyda-Grubbs 2nd generation, dichloromethane, 2.0 mM, 40.0 °C, 76.0 h): 2.7% and 5.9%
CN1CCN(c2cc3cc(c2)S(=O)(=O)NC[C@@H]2C[C@@H]4C[C@H]2[C@@H](Nc2nc(ncc2F)N3)[C@H]4C(N)=O)CC1	0.001 to 0.1	–	–	–	ring closure, yield of all isomers (from CN1CCN(c2cc(N)cc(S(=O)(=O)NC[C@@H]3C[C@@H]4C[C@H]3[C@@H](Nc3nc(Cl)ncc3F)[C@H]4C(N)=O)c2)CC1, snar bond, HCl): 6.8%
NC(=O)[C@H]1[C@@H]2CC3CNS(=O)(=O)c4cccc(c4)Nc4ncc(F)c(n4)N[C@@H]1[C@@H]3C2 (stereo partly drawn)	–	–	–	–	ring closure, yield of all isomers (from NC(=O)[C@H]1[C@@H]2CC(CNS(=O)(=O)c3cccc(N)c3)[C@@H](C2)[C@H]1Nc1nc(Cl)ncc1F, snar bond): 8.5%
NC(=O)[C@H]1[C@@H]2CC3CNC(=O)Nc4cccc(c4)Nc4ncc(F)c(n4)N[C@@H]1[C@@H]3C2 (stereo partly drawn)	0.101 to 1	0.101 to 1	1 to 6.25	> 6.25	ring closure, yield of all isomers (from NC(=O)[C@H]1[C@@H]2CC(CNC(=O)Nc3cccc(N)c3)[C@@H](C2)[C@H]1Nc1nc(Cl)ncc1F, snar bond): 15.1%; Kinase Inhibition Profile (not incl. Aurora) # kinases hit/# kinases tested [1]: 1/76 at 1 μM
Fc1cnc2nc1NC1CCCC(C1)OCC=CCOc1cccc(c1)N2 (stereo not drawn)	–	–	–	–	ring closure, yield of all isomers (from C=CCOc1cccc(Nc2ncc(F)c(NC3CCCC(OCC=C)C3)n2)c1, rcm bond, Grubbs 2nd generation, dichloromethane, 2.0 mM, 40.0 °C, 16.0 h): 1.5%
CN1CCN(c2ccc3cc2CC(=O)N[C@@H]2C[C@@H]4C[C@H]2[C@@H](Nc2nc(ncc2F)N3)[C@H]4C(N)=O)CC1	0.001 to 0.1	0.001 to 0.1	–	–	ring closure, yield of all isomers (from CN1CCN(c2ccc(N)cc2CC(=O)N[C@@H]2C[C@@H]3C[C@H]2[C@@H](Nc2nc(Cl)ncc2F)[C@H]3C(N)=O)CC1, snar bond): 5.3%
NC(=O)[C@H]1[C@H]2C[C@H]3[C@H]1Nc1nc(ncc1F)Nc1cccc(c1)CC(=O)N[C@@H]3C2	0.001 to 0.1	0.001 to 0.1	–	–	ring closure, yield of all isomers (from NC(=O)[C@H]1[C@H]2C[C@@H]([C@H]1Nc1nc(Cl)ncc1F)[C@H](NC(=O)Cc1cccc(N)c1)C2, snar bond): 8.1%
NC(=O)[C@H]1[C@@H]2CC3CNC(=O)c4cccc(c4)Nc4ncc(F)c(n4)N[C@@H]1[C@@H]3C2 (stereo partly drawn)	–	–	–	–	ring closure, yield of all isomers (from CC(C)(C)OC(=O)Nc1cccc(C(=O)NCC2C[C@@H]3C[C@H]2[C@@H](Nc2nc(Cl)ncc2F)[C@H]3C(N)=O)c1, snar bond, TFA, 2 steps): 1.8%
CN1CCN(c2ccc3cc2CNC[C@@H]2C[C@@H]4C[C@H]2[C@@H](Nc2nc(ncc2F)N3)[C@H]4C(N)=O)CC1	0.101 to 1	0.001 to 0.1	–	–	ring closure, yield of all isomers (from CN1CCN(c2ccc(N)cc2CNC[C@@H]2C[C@@H]3C[C@H]2[C@@H](Nc2nc(Cl)ncc2F)[C@H]3C(N)=O)CC1, snar bond, HCl): 24.9%
NC(=O)[C@H]1[C@@H]2C[C@H]3CNC(=O)Cc4cccc(c4)Nc4ncc(F)c(n4)N[C@@H]1[C@@H]3C2	–	–	–	–	ring closure, yield of all isomers (from NC(=O)[C@H]1[C@@H]2C[C@@H](CNC(=O)Cc3cccc(N)c3)[C@@H](C2)[C@H]1Nc1nc(Cl)ncc1F, snar bond, 2 steps): 7%
CN1CCN(c2ccc3cc2COC(=O)N[C@@H]2C[C@@H]4C[C@H]2[C@@H](Nc2nc(ncc2F)N3)[C@H]4C(N)=O)CC1	0.001 to 0.1	0.001 to 0.1	0.101 to 1	0.101 to 1	ring closure, yield of all isomers (from CN1CCN(c2ccc(N)cc2COC(=O)N[C@@H]2C[C@@H]3C[C@H]2[C@@H](Nc2nc(Cl)ncc2F)[C@H]3C(N)=O)CC1, snar bond, HCl): 8.7%
NC(=O)[C@H]1[C@H]2C[C@H]3[C@H]1Nc1nc(ncc1F)Nc1cccc(c1)CNC(=O)N[C@@H]3C2	0.001 to 0.1	0.001 to 0.1	1 to 6.25	1 to 6.25	ring closure, yield of all isomers (from NC(=O)[C@H]1[C@H]2C[C@@H]([C@H]1Nc1nc(Cl)ncc1F)[C@H](NC(=O)NCc1cccc(N)c1)C2, snar bond): 36.7%
CN1Cc2cccc(c2)Nc2ncc(F)c(n2)N[C@@H]2[C@@H]3C[C@@H](C[C@H]3C1)[C@@H]2C(N)=O	1 to 6.25	0.001 to 0.1	–	–	ring closure, yield of all isomers (from CN(Cc1cccc(N)c1)C[C@@H]1C[C@@H]2C[C@H]1[C@@H](Nc1nc(Cl)ncc1F)[C@H]2C(N)=O, snar bond): 5.5%
NC(=O)[C@H]1[C@@H]2C[C@H]3CNCC(O)c4cccc(c4)Nc4ncc(F)c(n4)N[C@@H]1[C@@H]3C2 (stereo partly drawn)	0.101 to 1	–	–	–	ring closure, yield of all isomers (from NC(=O)[C@H]1[C@@H]2C[C@@H](CNCC(O)c3cccc(N)c3)[C@@H](C2)[C@H]1Nc1nc(Cl)ncc1F, snar bond, HCl): 43.9%
CC(=O)N1Cc2cccc(c2)Nc2ncc(F)c(n2)N[C@@H]2[C@@H]3C[C@@H](C[C@H]3C1)[C@@H]2C(N)=O	–	–	–	–	ring closure, yield of all isomers (from CC(=O)N(Cc1cccc(N)c1)C[C@@H]1C[C@@H]2C[C@H]1[C@@H](Nc1nc(Cl)ncc1F)[C@H]2C(N)=O, snar bond): 45.4%
